29 compounds from ChEMBL document CHEMBL1128834, “Potent mammalian topoisomerase II inhibitors: 1-cyclopropyl-6,8-difluoro-1,4-dihydro-7-(2,6-dimethyl-4-pyridinyl)-4-substituted-quinolines” (Bioorg Med Chem Lett, 1995) can be followed below.

Assay [1] concerns the target DNA topoisomerase II (Homo sapiens, UniProt P11388+Q02880). Description: Inhibitory activity in a cell-free assay of DNA cleavage mediated by purified HeLa cell topoisomerase II.
For assay [2], the system named is P388. Description: In vitro cytotoxicity was determined by quantitating P388 murine leukemia cells on a coultier counter following a 48 hour exposure of cells to the test compound. The assay is classed as functional, cell-based. Particulars: Mus musculus, P388, 48 h.
Assay [3] has as its system Mus musculus. Nature of the assay: In vivo antitumor activity was observed in mice at a dose of […] administered intravenously, subcutaneously. The assay is classed as functional. To be noted: route intravenous.
The subject of assay [4] is P388. Description: In vitro cytotoxicity was determined by quantitating P388 murine leukemia cells on a oultier counter following a 48 hour exposure of cells to the test compound. Type of assay: functional, cell-based. Particulars: Mus musculus, P388, 48 h.
The subject of assay [5] is Mus musculus. Nature of the assay: In vivo antitumor activity was observed in mice at a dose of 96 mg/kg administered intravenously. To be noted: route intravenous. Type of assay: functional.
Assay [6] concerns P388. Nature of the assay: In vitro cytotoxicity was determined by quantitating P388 murine leukemia cells on a Coulter Counter following a 48 hour exposure of cells to the test compound. Type of assay: functional, cell-based. To be noted: Mus musculus, P388, 48 h.

One may read the EC50 as the concentration giving half of the maximal effect. With `Cc1cc(-c2c(F)cc3/c(=N/c4ccc(N)cc4)ccn(C4CC4)c3c2F)cc(C)n1`, the EC50 in assay [1] came to 7.6 µM. On the same count and under the same terms, for `Cc1cc(-c2c(F)cc3/c(=N\O)ccn(C4CC4)c3c2F)cc(C)n1` the value was 1.4 µM; for `Cc1cc(-c2c(F)cc3/c(=N/CCN(C)C)ccn(C4CC4)c3c2F)cc(C)n1`, 14 µM; for `Cc1cc(-c2c(F)cc3/c(=N/Sc4ccccn4)ccn(C4CC4)c3c2F)cc(C)n1`, 3.8 µM. With `Cc1cc(-c2c(F)cc3c(=N)ccn(C4CC4)c3c2F)cc(C)n1`, the EC50 in assay [1] is 12 µM.

For `Cc1ccc(S(=O)(=O)/N=c2\ccn(C3CC3)c3c(F)c(-c4cc(C)nc(C)c4)c(F)cc23)cc1`, the EC50 in assay [1] amounted to 45 µM. In turn, `Cc1cc(-c2c(F)cc3/c(=N/Sc4ccc(Cl)cc4)ccn(C4CC4)c3c2F)cc(C)n1` yielded a half-maximal effective concentration (EC50) in assay [1] of 9.4 µM. Same read-out and setting: the value for `Cc1cc(-c2c(F)cc3c(c2F)N(C2CC2)C=C/C3=C/C#N)cc(C)n1` was 4 µM; that for `Cc1cc(-c2c(F)cc3c(=S)ccn(C4CC4)c3c2F)cc(C)n1` was 76 µM. On the same count and under the same terms, for `Cc1cc(-c2c(F)cc3/c(=N/N4C(=O)c5ccccc5C4=O)ccn(C4CC4)c3c2F)cc(C)n1` the value was 16 µM; for `Cc1cc(-c2c(F)cc3/c(=N/c4ccccn4)ccn(C4CC4)c3c2F)cc(C)n1`, 3.6 µM. On the same count and under the same terms, for `CC(=O)N/N=c1\ccn(C2CC2)c2c(F)c(-c3cc(C)nc(C)c3)c(F)cc12` the value was 20 µM; for `Cc1cc(-c2c(F)cc3c(c2F)N(C2CC2)C=CC3=C(C#N)C#N)cc(C)n1`, 6.3 µM; for `Cc1cc(-c2c(F)cc3/c(=N/CCCN(C)C)ccn(C4CC4)c3c2F)cc(C)n1`, 5.5 µM.

`Cc1cc(-c2c(F)cc3/c(=N/Nc4cnc5ccccc5c4)ccn(C4CC4)c3c2F)cc(C)n1` had an EC50 in assay [1] of 92 µM. On the same count and under the same terms, for `Cc1cc(-c2c(F)cc3/c(=N/C4CC4)ccn(C4CC4)c3c2F)cc(C)n1` the value was 2.4 µM. As usually defined, the IC50 is the concentration that inhibits the measured activity by half. A low value points to greater potency. By T/C is commonly meant the result in the treated group divided by that in the control group, in per cent. For `Cc1cc(-c2c(F)cc3/c(=N/Nc4ccccn4)ccn(C4CC4)c3c2F)cc(C)n1`, the half-inhibitory concentration (IC50) in assay [2] stood at 1 µM. In assay [3], this compound gave a T/C of 37%. Further, the EC50 in assay [1] turned out to be 0.98 µM. On to `Cc1cc(-c2c(F)cc3/c(=N/NC(N)=O)ccn(C4CC4)c3c2F)cc(C)n1`, for which the EC50 in assay [1] amounted to 3.1 µM.

The compound `Cc1cc(-c2c(F)cc3/c(=N/N(C)C)ccn(C4CC4)c3c2F)cc(C)n1` returned an IC50 in assay [2] of 0.27 µM. Moreover, the concentration giving a half-maximal response (EC50) in assay [1] came out at 2.3 µM. Regarding `Cc1cc(-c2c(F)cc3c4nn(-c5ccccc5)c(=O)c-4cn(C4CC4)c3c2F)cc(C)n1`, in assay [1] (read-out: EC50), the concentration for a half-maximal effect (EC50) is 2.7 µM. Take `Cc1cc(-c2c(F)cc3/c(=N/NCCO)ccn(C4CC4)c3c2F)cc(C)n1`: the EC50 in assay [1] was determined as 3.2 µM. `Cc1cc(-c2c(F)cc3/c(=N/N)ccn(C4CC4)c3c2F)cc(C)n1` yielded a concentration giving a half-maximal response (EC50) in assay [1] of 1.7 µM. The same compound showed an IC50 in assay [4] of 3 µM. In assay [1], `CCOC(=O)/C(C#N)=C1\C=CN(C2CC2)c2c1cc(F)c(-c1cc(C)nc(C)c1)c2F` had an EC50 of 4.8 µM. On the same count and under the same terms, for `Cc1cc(-c2c(F)cc3/c(=N/Nc4c5ccccc5nc5ccccc45)ccn(C4CC4)c3c2F)cc(C)n1` the value was 21 µM.

Consider `Cc1cc(-c2c(F)cc3c(=O)ccn(C4CC4)c3c2F)cc(C)n1`, for which the IC50 in assay [2] is 9.7 µM. For the compound `CN/N=c1\ccn(C2CC2)c2c(F)c(-c3cc(C)nc(C)c3)c(F)cc12`, the 50% effective concentration (EC50) in assay [1] was determined as 1.9 µM.

With `Cc1cc(-c2c(F)cc3/c(=N/c4ccccc4O)ccn(C4CC4)c3c2F)cc(C)n1`, in assay [1], the concentration giving a half-maximal response (EC50) was determined as 1.6 µM. For `CO/N=c1/ccn(C2CC2)c2c(F)c(-c3cc(C)nc(C)c3)c(F)cc12`, the 50% effective concentration (EC50) in assay [1] turned out to be 2.6 µM. As to `COc1cc([C@@H]2c3cc4c(cc3[C@@H](O[C@@H]3O[C@@H]5CO[C@@H](C)O[C@H]5[C@H](O)[C@H]3O)[C@H]3COC(=O)[C@H]23)OCO4)cc(OC)c1O` [ETOPOSIDE], the T/C in assay [5] is listed as 3%. In assay [6], the midpoint of inhibition, the IC50, lay at 0.12 µM.
